Experimental data: ChEMBL document CHEMBL1201862, “PubChem BioAssay data set” (2004)
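Protocol summary: plate cells (96-well), add compound at 5 concentrations, incubate 48 h, interpolate endpoints linearly. GI50 marks 50% less growth.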 The source made the active and inactive calls. Cut-off read from the data, not from the text of the source: active = GI50 up to about 1.1 µM and inactive = higher.

Tests used:
Test in all cases: NCI-60 cell line screen, 48 h
786-0 = test system: 786-0
A498 = test system: A498
A549 = test system: A549
ACHN = test system: ACHN
CAKI-1 = test system: CAKI-1
CCRF-CEM = test system: CCRF-CEM
COLO 205 = test system: COLO 205
DLD-1 = test system: DLD-1
DMS-114 = test system: DMS-114
DMS-273 = test system: DMS-273
EKVX = test system: EKVX
HCC 2998 = test system: HCC 2998
HCT-116 = test system: HCT-116
HCT-15 = test system: HCT-15
HL-60 = test system: HL-60
HOP-18 = test system: HOP-18
HOP-62 = test system: HOP-62
HT-29 = test system: HT-29
IGROV-1 = test system: IGROV-1
K562 = test system: K562
KM-20L2 = test system: KM-20L2
KM12 = test system: KM12
LOX IMVI = test system: LOX IMVI
LXFL 529 = test system: LXFL 529
M14 = test system: M14
M19-MEL = test system: M19-MEL
MOLT-4 = test system: MOLT-4
Malme-3M = test system: Malme-3M
NCI-H226 = test system: NCI-H226
NCI-H23 = test system: NCI-H23
NCI-H460 = test system: NCI-H460
NCI-H522 = test system: NCI-H522
OVCAR-3 = test system: OVCAR-3
OVCAR-4 = test system: OVCAR-4
OVCAR-5 = test system: OVCAR-5
OVCAR-8 = test system: OVCAR-8
RPMI-8226 = test system: RPMI-8226
RXF 393 = test system: RXF 393
SF-268 = test system: SF-268
SF-295 = test system: SF-295
SF-539 = test system: SF-539
SK-MEL-28 = test system: SK-MEL-28
SK-MEL-2 = test system: SK-MEL-2
SK-MEL-5 = test system: SK-MEL-5
SK-OV-3 = test system: SK-OV-3
SN12C = test system: SN12C
SNB-19 = test system: SNB-19
SNB-75 = test system: SNB-75
SNB-78 = test system: SNB-78
SR = test system: SR
SW-620 = test system: SW-620
TK-10 = test system: TK-10
U-251 = test system: U-251
UACC-257 = test system: UACC-257
UACC-62 = test system: UACC-62
UO-31 = test system: UO-31
XF498 = test system: XF498

O=C1c2ccccc2C(=O)c2sc(Nc3ccc(Cl)cc3)nc21
GI50 (786-0): 1.6 µM (inactive)
GI50 (A498): 16.1 µM (inactive)
GI50 (A549): 8.63 µM (inactive)
GI50 (ACHN): 1.57 µM (inactive)
GI50 (CAKI-1): 1.99 µM (inactive)
GI50 (CCRF-CEM): 1.32 µM (inactive)
GI50 (COLO 205): 7.16 µM (inactive)
GI50 (DLD-1): 1.78 µM (inactive)
GI50 (DMS-114): 1.82 µM (inactive)
GI50 (DMS-273): 1.97 µM (inactive)
GI50 (EKVX): 5.77 µM (inactive)
GI50 (HCC 2998): 4.32 µM (inactive)
GI50 (HCT-116): 1.64 µM (inactive)
GI50 (HCT-15): 1.8 µM
GI50 (HL-60): 0.1 µM (active)
GI50 (HOP-18): 2.24 µM (inactive)
GI50 (HOP-62): 4.68 µM (inactive)
GI50 (HT-29): 4.15 µM (inactive)
GI50 (IGROV-1): 2.44 µM (inactive)
GI50 (K562): 1.96 µM (inactive)
GI50 (KM-20L2): 13.5 µM (inactive)
GI50 (KM12): 2.04 µM (inactive)
GI50 (LOX IMVI): 1.59 µM (inactive)
GI50 (LXFL 529): 1.69 µM (inactive)
GI50 (M14): 2.14 µM (inactive)
GI50 (M19-MEL): 0.388 µM (active)
GI50 (MOLT-4): 0.762 µM (active)
GI50 (Malme-3M): 1.96 µM (inactive)
GI50 (NCI-H226): 7.53 µM (inactive)
GI50 (NCI-H23): 1.55 µM (inactive)
GI50 (NCI-H460): 2.82 µM (inactive)
GI50 (NCI-H522): 1.61 µM (inactive)
GI50 (OVCAR-3): 1.51 µM (inactive)
GI50 (OVCAR-4): 1.65 µM (inactive)
GI50 (OVCAR-5): 5.13 µM (inactive)
GI50 (OVCAR-8): 1.75 µM (inactive)
GI50 (RPMI-8226): 1.38 µM (inactive)
GI50 (RXF 393): 1.53 µM (inactive)
GI50 (SF-268): 2.4 µM (inactive)
GI50 (SF-295): 5.53 µM (inactive)
GI50 (SF-539): 4.55 µM (inactive)
GI50 (SK-MEL-28): 1.66 µM (inactive)
GI50 (SK-MEL-2): 3.67 µM (inactive)
GI50 (SK-MEL-5): 1.8 µM (inactive)
GI50 (SK-OV-3): 18.9 µM (inactive)
GI50 (SN12C): 1.85 µM (inactive)
GI50 (SNB-19): 5.73 µM (inactive)
GI50 (SNB-75): 8.41 µM (inactive)
GI50 (SNB-78): 3.49 µM (inactive)
GI50 (SR): 1.86 µM (inactive)
GI50 (SW-620): 1.09 µM (active)
GI50 (TK-10): 5.89 µM (inactive)
GI50 (U-251): 1.62 µM (inactive)
GI50 (UACC-257): 1.75 µM (inactive)
GI50 (UACC-62): 1.85 µM (inactive)
GI50 (UO-31): 3.35 µM (inactive)
GI50 (XF498): 2.16 µM (inactive)

CN(C)/C(=N/C(=O)Nc1ccccc1)SCc1ccccc1
GI50 (786-0): > 100 µM (inactive)
GI50 (A498): > 100 µM (inactive)
GI50 (A549): > 100 µM (inactive)
GI50 (ACHN): > 100 µM (inactive)
GI50 (CAKI-1): > 100 µM (inactive)
GI50 (CCRF-CEM): > 100 µM (inactive)
GI50 (COLO 205): > 100 µM (inactive)
GI50 (DLD-1): 65.3 µM (inactive)
GI50 (DMS-114): 67.5 µM (inactive)
GI50 (DMS-273): > 100 µM (inactive)
GI50 (EKVX): > 100 µM (inactive)
GI50 (HCC 2998): > 100 µM (inactive)
GI50 (HCT-15): > 100 µM
GI50 (HL-60): > 100 µM (inactive)
GI50 (HOP-18): 64.9 µM (inactive)
GI50 (HOP-62): > 100 µM (inactive)
GI50 (HT-29): > 100 µM (inactive)
GI50 (IGROV-1): > 100 µM (inactive)
GI50 (K562): 76.9 µM (inactive)
GI50 (KM12): > 100 µM (inactive)
GI50 (LOX IMVI): > 100 µM (inactive)
GI50 (LXFL 529): > 100 µM (inactive)
GI50 (M14): > 100 µM (inactive)
GI50 (M19-MEL): > 100 µM (inactive)
GI50 (MOLT-4): 73.3 µM (inactive)
GI50 (Malme-3M): > 100 µM (inactive)
GI50 (NCI-H226): > 100 µM (inactive)
GI50 (NCI-H23): > 100 µM (inactive)
GI50 (NCI-H522): 91.2 µM (inactive)
GI50 (OVCAR-3): > 100 µM (inactive)
GI50 (OVCAR-4): > 100 µM (inactive)
GI50 (OVCAR-5): > 100 µM (inactive)
GI50 (OVCAR-8): > 100 µM (inactive)
GI50 (RPMI-8226): > 100 µM (inactive)
GI50 (RXF 393): 58.9 µM (inactive)
GI50 (SF-268): > 100 µM (inactive)
GI50 (SF-295): > 100 µM (inactive)
GI50 (SF-539): > 100 µM (inactive)
GI50 (SK-MEL-28): > 100 µM (inactive)
GI50 (SK-MEL-2): 85.1 µM (inactive)
GI50 (SK-MEL-5): > 100 µM (inactive)
GI50 (SK-OV-3): > 100 µM (inactive)
GI50 (SN12C): > 100 µM (inactive)
GI50 (SNB-19): > 100 µM (inactive)
GI50 (SNB-75): > 100 µM (inactive)
GI50 (SNB-78): > 100 µM (inactive)
GI50 (SW-620): > 100 µM (inactive)
GI50 (TK-10): > 100 µM (inactive)
GI50 (U-251): > 100 µM (inactive)
GI50 (UACC-257): > 100 µM (inactive)
GI50 (UACC-62): > 100 µM (inactive)
GI50 (UO-31): > 100 µM (inactive)
GI50 (XF498): 6.43 µM (inactive)
